Data on one compound can be found in patent US12194048B2, “Use of pyrrolopyridine derivatives for preventing or treating inflammatory diseases” (VORONOI CO., LTD., priority 2020, dated 2025).

SMILES strings stand for the structures.

Series [1] can be described thus: Caco-2 permeability. The series is classed as in vitro ADME. The following applies: human. The source says:
Caco-2 permeability observes the cell membrane permeability of a drug, and can be considered an index associated with drug absorption and excretion.

Series [2] relates to collagen-induced arthritis mouse model. The series can be described thus: Collagen-induced arthritis mouse model. Type of series: in vivo, male DBA-1 mice. The method, then:
In the present experiment, male DBA-1 mice aged 8 to 10 weeks were used as the animal model. After mixing Bovine Type II Collagen (CII) with the same amount of complete Freud's adjuvant, 100 μL was injected by intradermal injection into the tail of the DBA-1 mouse. After 21 days, the same CII was mixed with the same amount of incomplete Freud's adjuvant (IFA, Chondrex), then 100 μL was injected by intradermal injection into the tail. Observation of symptoms of the mouse model began at this point, and arthritis assessment was carried out every other day. […] In the case of the control group Enbrel (anti-TNF-α), 10 mg/kg was subcutaneously administered once every 2 days, then dexamethasone (0.15 mg/kg), Baricitinib (5 mg/kg), Filgotinib (50 mg/kg), and Tofacitinib (10 mg/kg) were orally administered twice a day; as for arthritis assessment, the scores assessed at the four feet of the mouse were added and divided by 4 to give a mean, based on the mean arthritic index by Rosloniec et al (Reference Literature 1: Brand D D, et al. Nat Protoc. 2007:2(5): 1269-75).
The scores and criteria for the arthritis assessment are as follows. • Score 0: No edema or erythema. • Score 1: Mild edema and erythema limited to the foot or ankle joint • Score 2: Mild edema and erythema from the ankle joint to the tarsals • Score 3: Moderate edema and erythema from the ankle joint to the metatarsals. • Score 4: Severe edema and skin flaring from the ankle to the entire leg, or stiffness in the leg
Upon termination of the experiment, the weight of the two hind legs of each mouse were measured and added, and these measurements were compared.
Vol. 30, No. I, p93-96.; Reference 3: Pine P R, et al. Clin Immunol. 124 (3): 244-57).

Series [3] concerns the target hERG (Homo sapiens, UniProt Q12809). The series can be described thus: hERG analysis. (In general: The hERG channel carries a current that helps repolarise heart muscle cells.)
Setting [4] is: 30 mg/kg orally twice a day, H&E and T-blue, FIGS. 3c to 3e.

hERG, sequence (Q12809 whole entry): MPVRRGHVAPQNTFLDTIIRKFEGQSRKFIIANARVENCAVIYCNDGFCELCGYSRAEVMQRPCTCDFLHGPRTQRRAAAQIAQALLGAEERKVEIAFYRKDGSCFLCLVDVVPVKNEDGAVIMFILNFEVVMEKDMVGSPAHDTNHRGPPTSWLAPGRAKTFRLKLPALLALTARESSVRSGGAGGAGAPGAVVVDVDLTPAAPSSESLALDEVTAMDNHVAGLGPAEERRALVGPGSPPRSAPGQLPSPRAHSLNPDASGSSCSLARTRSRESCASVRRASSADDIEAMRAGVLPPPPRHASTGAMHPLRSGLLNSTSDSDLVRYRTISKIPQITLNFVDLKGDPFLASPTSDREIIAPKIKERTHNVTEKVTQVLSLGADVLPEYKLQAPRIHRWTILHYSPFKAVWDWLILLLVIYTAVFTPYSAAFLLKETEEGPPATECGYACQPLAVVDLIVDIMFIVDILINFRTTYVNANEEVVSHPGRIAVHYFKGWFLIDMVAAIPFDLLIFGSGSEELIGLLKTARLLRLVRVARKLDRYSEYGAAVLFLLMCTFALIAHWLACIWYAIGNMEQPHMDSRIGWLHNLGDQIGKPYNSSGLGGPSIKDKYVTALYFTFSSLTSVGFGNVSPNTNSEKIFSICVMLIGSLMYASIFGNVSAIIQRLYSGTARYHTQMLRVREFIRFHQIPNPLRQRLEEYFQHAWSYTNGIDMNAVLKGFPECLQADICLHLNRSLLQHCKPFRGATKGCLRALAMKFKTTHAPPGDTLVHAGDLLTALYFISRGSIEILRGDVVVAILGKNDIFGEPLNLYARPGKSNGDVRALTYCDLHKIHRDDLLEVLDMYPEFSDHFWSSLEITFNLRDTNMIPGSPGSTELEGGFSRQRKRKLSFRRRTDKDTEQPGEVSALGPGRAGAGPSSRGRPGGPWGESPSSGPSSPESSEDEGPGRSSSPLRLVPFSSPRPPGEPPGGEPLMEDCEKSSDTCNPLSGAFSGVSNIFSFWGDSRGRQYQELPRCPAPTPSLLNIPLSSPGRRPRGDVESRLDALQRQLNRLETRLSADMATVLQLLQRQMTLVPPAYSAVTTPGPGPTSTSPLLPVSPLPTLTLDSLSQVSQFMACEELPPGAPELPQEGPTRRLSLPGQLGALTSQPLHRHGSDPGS

In series [1], `CCNc1cc(Nc2ccc(C(=O)N3CCC(N4CCOCC4)CC3)cc2OC)nc2[nH]cc(C(F)(F)F)c12` [Compound 1, (4-((4-(ethylamino)-3-(trifluoromethyl)-1H-pyrrolo[2,3-b]pyridine-6-yl)amino)-3-methoxyphenyl)(4-morpholinopiperidine-1-yl)methanone] displayed a Papp of 2.01 nm/s. Besides, in series [2] (30 mg/kg orally twice a day for 2 weeks, FIG. 3b), the “weight of the joint” value is recorded as “reduced”. Besides, in series [2] (setting [4]), the “area of cells where collagen-induced inflammation had occurred (histology)” value was “reduced” and the “area of the damaged joint (histology)” value is recorded as “reduced”. Also, in series [3], half-maximal inhibition (IC50) was put at 4.39 µM and the “cardiac toxicity (hERG, in words)” value is on record as “excellent safety in terms of cardiac toxicity”.

As a reminder, the Papp is a coefficient for how fast a substance crosses the barrier. What is called IC50 is the concentration that gives 50% inhibition. Low readings indicate greater potency in that assay, high ones weaker potency in that assay.
